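A five-concentration, 48-hour dose response in 96-well plates underlies each endpoint, interpolated linearly between surrounding concentrations. Definition used: TGI = concentration required for complete inhibition of growth.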
Legend:
Assay in all cases: NCI-60 cell line screen, 48 h
[1] = system: HS 578T breast
[2] = system: HCT-116 colon
[3] = system: SK-MEL-2 melanoma
[4] = system: OVCAR-4 ovarian
[5] = system: EKVX NSCLC
[6] = system: IGROV1 ovarian
[7] = system: HT29 colon
[8] = system: HOP-92 NSCLC
[9] = system: MDA-N
[10] = system: NCI-H522 lung
[11] = system: A498 renal
[12] = system: ACHN renal
[13] = system: HL-60(TB) leukemia
[14] = system: HOP-62 NSCLC
[15] = system: NCI-H226 lung
[16] = system: KM12 colon
[17] = system: T-47D breast
[18] = system: MOLT-4 leukemia
[19] = system: HCT-15 colon
[20] = system: SR leukemia

## CC(C)C1CC(CO)(CNc2nc(N)nc(Cl)c2C=O)C1 (centres undefined)
[1]
  TGI: 31.3 µM
[2]
  TGI: 7.23 µM
[3]
  TGI: 3.31 µM
[4]
  TGI: 10.9 µM
[5]
  TGI: 11.4 µM
[6]
  TGI: 3.52 µM
[7]
  TGI: 6.42 µM
[8]
  TGI: 4.83 µM
[9]
  TGI: 9.31 µM
[10]
  TGI: 1.14 µM
[11]
  TGI: 56.1 µM
[12]
  TGI: 22.8 µM
[13]
  TGI: 3.92 µM
[14]
  TGI: 37 µM
[15]
  TGI: 26.3 µM
[16]
  TGI: > 46.7 µM
[17]
  TGI: > 100 µM
[18]
  TGI: 5.08 µM
[19]
  TGI: 32.1 µM

## Cc1ccc(Nc2nc3ccccc3nc2NS(=O)(=O)c2ccc(N)cc2)cc1
[1]
  TGI: > 100 µM
[2]
  TGI: > 100 µM
[3]
  TGI: 81.9 µM
[4]
  TGI: 71 µM
[20]
  TGI: > 100 µM
[5]
  TGI: > 100 µM
[6]
  TGI: > 100 µM
[7]
  TGI: > 100 µM
[8]
  TGI: > 100 µM
[9]
  TGI: > 100 µM
[10]
  TGI: > 100 µM
[12]
  TGI: > 100 µM
[13]
  TGI: 80.5 µM
[14]
  TGI: > 100 µM
[15]
  TGI: > 100 µM
[16]
  TGI: 94.3 µM
[17]
  TGI: > 100 µM
[18]
  TGI: 81.8 µM
[19]
  TGI: > 100 µM

## CC(C)=CCN1c2ccccc2[C@@]2(CC=C(C)C)CCN(C)[C@@H]12
[1]
  TGI: 45.8 µM
[2]
  TGI: 73.2 µM
[3]
  TGI: 33.3 µM
[4]
  TGI: > 100 µM
[20]
  TGI: > 100 µM
[5]
  TGI: 64.3 µM
[6]
  TGI: > 100 µM
[7]
  TGI: 90.4 µM
[8]
  TGI: > 100 µM
[9]
  TGI: > 100 µM
[10]
  TGI: 39.9 µM
[12]
  TGI: > 100 µM
[13]
  TGI: 38.1 µM
[14]
  TGI: 55 µM
[15]
  TGI: > 100 µM
[16]
  TGI: > 100 µM
[17]
  TGI: 50.3 µM
[18]
  TGI: > 100 µM
[19]
  TGI: > 100 µM

## Cc1c(S(=O)(=O)/N=C(\NO)Nc2ccc(Cl)cc2)sc2ccc(Cl)cc12
[1]
  TGI: 44.3 µM
[2]
  TGI: 27.4 µM
[3]
  TGI: 34.4 µM
[4]
  TGI: 38.3 µM
[5]
  TGI: 25.1 µM
[6]
  TGI: 27.5 µM
[7]
  TGI: 34.3 µM
[8]
  TGI: 28.8 µM
[9]
  TGI: 32.9 µM
[10]
  TGI: 22.7 µM
[12]
  TGI: 28.5 µM
[13]
  TGI: 47.3 µM
[14]
  TGI: 36.7 µM
[15]
  TGI: 38.1 µM
[16]
  TGI: 41.7 µM
[17]
  TGI: 89.9 µM
[18]
  TGI: > 100 µM
[19]
  TGI: 30.6 µM

## CN(C)CCC(C#N)(c1ccccc1)c1ccccc1
[1]
  TGI: > 100 µM
[2]
  TGI: > 100 µM
[3]
  TGI: > 100 µM
[4]
  TGI: > 100 µM
[5]
  TGI: > 100 µM
[6]
  TGI: > 100 µM
[7]
  TGI: > 100 µM
[8]
  TGI: 66.6 µM
[9]
  TGI: > 100 µM
[10]
  TGI: > 100 µM
[11]
  TGI: > 100 µM
[12]
  TGI: > 100 µM
[13]
  TGI: 65.3 µM
[14]
  TGI: > 100 µM
[15]
  TGI: > 100 µM
[16]
  TGI: > 100 µM
[17]
  TGI: > 100 µM
[19]
  TGI: > 100 µM

## CC(C)CCNC(=O)c1ccc(CNC(=O)/C=C/c2ccc3c(c2)-c2ccccc2C3)cc1
[1]
  TGI: > 100 µM
[2]
  TGI: > 100 µM
[3]
  TGI: > 100 µM
[4]
  TGI: 80.1 µM
[20]
  TGI: > 100 µM
[5]
  TGI: > 100 µM
[6]
  TGI: > 100 µM
[7]
  TGI: > 100 µM
[8]
  TGI: > 100 µM
[9]
  TGI: > 100 µM
[10]
  TGI: > 100 µM
[11]
  TGI: > 100 µM
[12]
  TGI: > 100 µM
[14]
  TGI: 44.8 µM
[15]
  TGI: > 100 µM
[16]
  TGI: > 100 µM
[17]
  TGI: > 100 µM
[18]
  TGI: > 100 µM
[19]
  TGI: > 100 µM

## COC(=O)C#CC1(O)C=CC(=O)C=C1
[1]
  TGI: 16.1 µM
[3]
  TGI: 7.64 µM
[4]
  TGI: 17 µM
[20]
  TGI: 15.2 µM
[5]
  TGI: 24.5 µM
[6]
  TGI: 2.85 µM
[7]
  TGI: 13.5 µM
[8]
  TGI: 2.29 µM
[9]
  TGI: > 34.5 µM
[10]
  TGI: 0.552 µM
[11]
  TGI: > 100 µM
[12]
  TGI: 10.1 µM
[14]
  TGI: 15.7 µM
[15]
  TGI: 20.8 µM
[16]
  TGI: 2.3 µM
[17]
  TGI: 3.74 µM
[18]
  TGI: 0.0794 µM
[19]
  TGI: 4.32 µM

## COC(=O)[C@@H](N1C(=O)c2ccccc2C1=O)C1(C)CC(Cl)=NO1 (some centres undefined)
[1]
  TGI: 75.3 µM
[2]
  TGI: > 100 µM
[3]
  TGI: > 100 µM
[4]
  TGI: > 100 µM
[5]
  TGI: > 100 µM
[6]
  TGI: 58.2 µM
[7]
  TGI: > 100 µM
[9]
  TGI: > 100 µM
[10]
  TGI: 79.1 µM
[11]
  TGI: 99.7 µM
[12]
  TGI: > 100 µM
[14]
  TGI: 38.9 µM
[15]
  TGI: > 100 µM
[16]
  TGI: > 100 µM
[17]
  TGI: > 100 µM
[19]
  TGI: > 100 µM

## COc1ccc(CC(COS(=O)(=O)c2ccc(C)cc2)NS(=O)(=O)c2ccc(C)cc2)cc1 (centres undefined)
[1]
  TGI: 58.8 µM
[2]
  TGI: > 48.4 µM
[3]
  TGI: 44.7 µM
[4]
  TGI: 41.9 µM
[5]
  TGI: 31.6 µM
[6]
  TGI: 30.1 µM
[7]
  TGI: > 50.9 µM
[8]
  TGI: 19.9 µM
[9]
  TGI: > 62.6 µM
[10]
  TGI: 22.9 µM
[11]
  TGI: 35.8 µM
[12]
  TGI: 49.2 µM
[14]
  TGI: 41.2 µM
[15]
  TGI: 27.7 µM
[16]
  TGI: > 77 µM
[17]
  TGI: 21 µM
[18]
  TGI: > 100 µM
[19]
  TGI: 41.1 µM

## COc1ccc(N(c2ccc(C#N)cc2)c2ccc(C#N)cc2)cc1
[1]
  TGI: > 100 µM
[2]
  TGI: > 100 µM
[3]
  TGI: > 100 µM
[4]
  TGI: > 100 µM
[5]
  TGI: > 100 µM
[6]
  TGI: > 100 µM
[7]
  TGI: > 100 µM
[8]
  TGI: > 100 µM
[9]
  TGI: > 100 µM
[10]
  TGI: 82.9 µM
[11]
  TGI: > 100 µM
[12]
  TGI: > 100 µM
[13]
  TGI: > 100 µM
[14]
  TGI: > 100 µM
[15]
  TGI: > 100 µM
[16]
  TGI: > 100 µM
[17]
  TGI: 77.6 µM
[18]
  TGI: > 100 µM
[19]
  TGI: > 100 µM

## CC(C)c1cc(C(C)C)c(S(=O)(=O)N/N=C2\CC3CCC2(C)C3(C)C)c(C(C)C)c1 (centres undefined)
[1]
  TGI: > 100 µM
[2]
  TGI: > 100 µM
[3]
  TGI: > 100 µM
[4]
  TGI: > 100 µM
[5]
  TGI: 71.5 µM
[6]
  TGI: > 100 µM
[7]
  TGI: 43.8 µM
[9]
  TGI: 64.8 µM
[10]
  TGI: 36.8 µM
[11]
  TGI: 32.7 µM
[12]
  TGI: > 100 µM
[14]
  TGI: > 100 µM
[15]
  TGI: 80 µM
[16]
  TGI: > 100 µM
[17]
  TGI: 68 µM
[18]
  TGI: 40 µM
[19]
  TGI: > 100 µM

## COc1cc(N(CCC#N)CCC#N)ccc1/C(N=Nc1cccc([N+](=O)[O-])c1)=N\NC(=O)c1ccc(C)cc1
[1]
  TGI: > 100 µM
[2]
  TGI: > 100 µM
[3]
  TGI: > 100 µM
[4]
  TGI: > 100 µM
[5]
  TGI: 63.1 µM
[6]
  TGI: > 100 µM
[7]
  TGI: > 100 µM
[8]
  TGI: > 100 µM
[9]
  TGI: > 100 µM
[10]
  TGI: > 100 µM
[11]
  TGI: > 100 µM
[12]
  TGI: > 100 µM
[13]
  TGI: 49.1 µM
[14]
  TGI: > 100 µM
[15]
  TGI: > 100 µM
[16]
  TGI: > 100 µM
[17]
  TGI: > 100 µM
[18]
  TGI: > 100 µM
[19]
  TGI: > 100 µM

Source: PubChem BioAssay (NCI)
